Measurements reported in PMC12463120, “Phenylalanine‐Based DNA‐Encoded Chemical Libraries for the Discovery of Potent and Selective Small Organic Ligands Against Markers of Cancer and Immune Cells” (Advanced Science, 2025).

Target: T1, NKG2D-Fc (Homo sapiens, UniProt P26718)
T1 construct: the extracellular domain of NKG2D was fused with an IgG Fc fragment; made in house; host or cells: CHO cells
T1 sequence (P26718 73-216 limits assumed): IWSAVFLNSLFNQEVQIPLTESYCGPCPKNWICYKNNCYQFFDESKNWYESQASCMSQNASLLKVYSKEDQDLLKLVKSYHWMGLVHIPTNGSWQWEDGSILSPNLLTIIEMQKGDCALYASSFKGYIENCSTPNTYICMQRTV
Experiment: Flow cytometry on streptavidin sepharose beads coated with NKG2D-Fc
Assay type: binding
Details: 300 nM
Method: HT1080.hPSMA and PC3.hACP3 cell lines were generated by lentiviral transduction on wild type cells (HT1080.wt and PC3.wt), according to published procedures9. For long-term storage, cell lines were maintained in liquid nitrogen. Prior to in vitro and in vivo experiments, cells were cultured in DMEM (PC3.wt, PC3.hACP3, HT1080.wt, and HT1080.hPSMA) or RPMI medium (SK-RC-52) (medium provided by Invitrogen) supplemented with FCS (10%, Invitrogen) and antibiotic-antimycotic (1%, AA, Invitrogen) at 37 °C and 5% CO2. For passaging, cells were detached using Trypsin-EDTA 0.05% (Invitrogen) when reaching 90% confluency and re-seeded at a dilution of 1:3 (PC3.hACP3 and PC3.wt) […]
2.17 Flow cytometry experiments on cells
Cancer cells were detached with an Accutase® cell detachment solution, resuspended in a standard culture medium, and transferred to falcon tubes. Cells were counted and centrifuged at 400 rcf for 3 min. […] Data were acquired halting the measurement at 10´ 000 events on a Cytoflex S flow cytometer (Beckman Coulter), and analyzed using the FlowJo software v10 (BD Biosciences). […]
plate (20 µL/well). […] Data were acquired halting the measurement at 10’000 events on a Cytoflex S flow cytometer (Beckman Coulter) and analyzed using the FlowJo software v10 (BD Biosciences). […]

- binding on NKG2D-Fc-coated streptavidin sepharose beads by flow cytometry: significant shift in binding
SMILES: CC(C)Oc1ccc(-c2cccc(C[C@H](NC(=O)c3ccccc3-c3ccc(C(F)(F)F)cc3)C(=O)N[C@@H](CCCCNC(=S)Nc3ccc4c(c3)C(=O)OC43c4ccc(O)cc4Oc4cc(O)ccc43)C(=O)O)c2)c(F)c1 [compound 30]
